Assay [1] has as its target T1, hMTH1 (human MutT homolog 1) (Homo sapiens, UniProt P36639). The assay is described as follows: modified Malachite Green assay with inorganic pyrophosphatase. It is filed as biochemical. Set-up: gene NUDT1; E. coli-optimised cDNA in pET28a(+), expressed in E. coli BL21(DE3); His-tag removed with thrombin; monomer.
The target in assay [2] is T1, hMTH1 (human MutT homolog 1). Set-up: gene NUDT1. To be noted: substrate dGTP 100 μM, 6 nM hMTH1, 10 mM Mg acetate, 1% DMSO, 22 °C, active site (crystal structure, metal free) buffer, no inhibition seen, bound not given.

Experimental findings from publication PMC12519060, “The anabolic steroid stanozolol is a potent inhibitor of human MutT homolog 1” (Febs Letters, 2025) are described below.

SMILES strings stand for the structures.

Take `C[C@]12Cc3c[nH]nc3C[C@@H]1CC[C@@H]1[C@@H]2CC[C@@]2(C)[C@H]1CC[C@]2(C)O` [stanozolol]: inhibition in assay [1] was half-maximal at 26 nM (IC50).

Take `C[C@]12CCC(=O)C[C@@H]1CC[C@@H]1[C@@H]2CC[C@]2(C)[C@@H](O)CC[C@@H]12` [Dihydrotestosterone]: in assay [2], the no inhibition entry is “while DHT did not show any inhibition of hMTH1 (Fig. S1)”.
